Here are results for 17 molecules from patent US20250195530A1, “POLQ INHIBITORS” (ASTRAZENECA AB, priority 2022, published 2025).

One assay deals with DLD-1 cells. The assay is described as follows: Inhibition of proliferation, DLD-1 BRCA2 wt control (Cell Titre Glo 3D). It is filed as cell-based. The following applies: Homo sapiens. An excerpt:
This assay identifies anti-proliferative effects of POLQ compounds in the homologous recombination deficient colorectal cell line DLD-1 BRCA2−/− over 8-9 population doublings (7 days for DLD-1 and 12 days for DLD-1 BRCA2−/−). DLD1 BRCA2 wt are used as a control to detect cell toxic effects not specific to homologous recombination deficiency.
DLD-1 BRCA2−/− and DLD-1 cells were kept in continuous culture in Assay Medium (RPMI 1640 phenol red free (Sigma R7509) containing 1% GlutaMAX (Gibco 35050) and 10% Foetal Bovine Serum (Gibco 10270-106)). On the day of the assay cells in culture of ˜80-90% confluent were used. Cell monolayers were washed with 10 mL PBS, then removed and added 2 mL TrypLE Express (Gibco 12604). The cells with TrypLE Express were incubated for 5 minutes in cell culture incubator and then the detached cells resuspend in 15 mL Assay Medium. Cells were counted using a ViCell and the cell images were monitored for clumps of cells, ideally they should be single or <3 cell clusters. The cells were diluted to 3,000 cells/mL of DLD-1 BRCA2−/− and 1,500 cells/mL of DLD-1 in Assay Medium and 100 μL added per well of transparent bottomed, black, tissue culture-treated 96-well plates (CoStar, No. 3904) Assay Ready Plates. The Assay Ready Plates contain a 10 point 10 μM to 0.51 nM dose range with three-fold dilutions in DMSO with a final volume of 100 nL. The plates were incubated at 37° C. with 5% C02 for 6 days. On day 6, 100 μL/well of Assay Medium was added to duplicate Assay Ready Plates. 90 μL of culture medium was removed from the cell plates and replenished with the Assay Media and compounds from the duplicate Assay Ready Plates using the Bravo. The plates were further incubated at 37° C. with 5% CO2. On day 7 the plates containing DLD-1 and Cell Titre Glo 3D (Promega G9683) were equilibrated to room temperature, then 60 μL of Cell Titre Glo 3D was added per well and incubated on a shaking platform for 30 min. Plates were read on the Envision measuring luminescence for 1 second per well. On day 12 the plates containing DLD-1 BRCA2−/− cells and Cell Titre Glo 3D (Promega G9683) were equilibrated to room temperature, then 60 μL Cell Titre Glo 3D added per well and incubated on a shaking platform for 30 min. Plates were read on the Envision measuring luminescence for 1 second per well. The data was exported into a suitable software package (such as Genedata) to perform curve fitting analysis. Inhibition of cell proliferation was expressed as an IC5o value and was determined by calculation of the concentration of compound that was required to give a 50% reduction of the average maximum Total Intensity signal.

The next assay relates to DLD-1 BRCA2−/− cells. The assay is described as follows: Homologous recombination synthetic lethal inhibition of proliferation, DLD-1 BRCA2-/- (Cell Titre Glo 3D). The format is cell-based. The following applies: Homo sapiens. A digest of the protocol:
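Wild-type DLD-1 serves as the control for non-specific toxicity, and BRCA2-null DLD-1 as the homologous-recombination-deficient line. Both grew with compound from 10 μM down to 0.51 nM, re-dosed after 6 days. Luminescent ATP content (CellTiter-Glo 3D) was read after 7 or 12 days, respectively, to give IC50 values.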

[1] abbreviates: DLD-1, DLD-1 BRCA2 wt control proliferation, column head only partly shown, read-out: POLQ PD Prolif Lumin (converted).
[2] abbreviates: DLD-1, DLD-1 BRCA2-/- proliferation, column head only partly shown, read-out: POLQ PD Prolif Lumin (converted).
The mark [3] stands for this setting: DLD-1, second proliferation column (c6), DLD-1 BRCA2 wt control, read-out: POLQ PD Prolif Lumin (converted).
Setting [4] is: DLD-1, first proliferation column (c5), DLD-1 BRCA2-/-, read-out: POLQ PD Prolif Lumin (converted).
The mark [5] stands for this setting: DLD-1, 168 h, DLD-1 BRCA2 wt cells, 7 days, read-out: POLQ PD Prolif Lumin DLD1 mean pIC50 (converted).
[6] abbreviates: DLD-1, 288 h, DLD-1 BRCA2−/− cells, 12 days, read-out: POLQ PD Prolif Lumin BRCA2 −/− mean pIC50 (converted).
The mark [7] stands for this setting: DLD-1, second proliferation column (c6), taken as DLD-1 BRCA2 wt, read-out: POLQ PD Prolif Lumin (converted).
Setting [8] is: DLD-1, first proliferation column (c5), taken as DLD-1 BRCA2-/-, read-out: POLQ PD Prolif Lumin (converted).
Setting [9] is: DLD-1, DLD1 BRCA2 wt, mean, read-out: POLQ PD Prolif Lumin DLD1 mean pIC50 (converted).
The mark [10] stands for this setting: DLD-1, DLD-1 BRCA2 −/−, mean, read-out: POLQ PD Prolif Lumin BRCA2 −/− mean pIC50 (converted).

Each structure is given as a SMILES string. Where two headings read alike, the source gives them in different places.

`CC1(Oc2ncnc3c2nc(-c2ccc(OCCN4CC(O)C4)cc2Cl)n3Cc2cc(Cl)ccn2)CC1` [Example T206, 1-(2-(3-chloro-4-(9-((4-chloropyridin-2-yl)methyl)-6-(1-methylcyclopropoxy)-9H-purin-8-yl)phenoxy)ethyl)azetidin-3-ol]: the IC50 in the assay on DLD-1 cells (setting [1]) is greater than 10000 nM; with DLD-1 BRCA2−/− cells (setting [2]), 126 nM.
For the molecule `Cc1ccnc(Cn2c(-c3ccc(OCCN4CC[C@@H](O)C4)cc3Cl)nc3c(OC4(C)CC4)ncnc32)c1` [Example T512, (R)-1-(2-(3-chloro-4-(6-(1-methylcyclopropoxy)-9-((4-methylpyridin-2-yl)methyl)-9H-purin-8-yl)phenoxy)ethyl)pyrrolidin-3-ol], the IC50 is greater than 10000 nM in the assay on DLD-1 cells (setting [3]) and 200 nM in the assay on DLD-1 BRCA2−/− cells (setting [4]).
Consider `Cc1c(OCCN2CCNCC2)cncc1-c1nc2c(OC3(C)CC3)ncnc2n1Cc1ccccc1` [Example 22, 9-Benzyl-8-(4-methyl-5-(2-(piperazin-1-yl)ethoxy)pyridin-3-yl)-6-(1-methylcyclopropoxy)-9H-purine], for which the IC50 in the assay on DLD-1 cells (setting [5]) was greater than 10000 nM; with DLD-1 BRCA2−/− cells (setting [6]), 631 nM.
Turning to `COc1ccc(Cl)cc1Cn1c(-c2cccc(OC[C@H](C)CC(=O)O)c2Cl)nc2c(OC3(C)CC3)ncnc21` (single isomer, unassigned; isomer 2) [Example 51, 4-(2-Chloro-3-(9-(5-chloro-2-methoxybenzyl)-6-(1-methylcyclopropoxy)-9H-purin-8-yl)phenoxy)-3-methylbutanoic acid (isomer 2)], the IC50 is greater than 10000 nM in the assay with DLD-1 cells (DLD-1, 168 h, DLD-1 (BRCA2 wt control), 7 days, Cell Titre Glo 3D, read-out: POLQ PD Prolif Lumin DLD1 Mean pIC50 (converted)) and 7.94 nM with DLD-1 BRCA2−/− cells (DLD-1, 288 h, DLD-1 BRCA2−/−, 12 days, Cell Titre Glo 3D, read-out: POLQ PD Prolif Lumin BRCA2 −/− Mean pIC50 (converted)).
In the case of `Cc1ccnc(Cn2c(-c3ccc(OC4CNC4)cc3Cl)nc3c(OC4(C)CC4)ncnc32)c1` [Example T111, 8-(4-(azetidin-3-yloxy)-2-chlorophenyl)-6-(1-methylcyclopropoxy)-9-((4-methylpyridin-2-yl)methyl)-9H-purine], the IC50 with DLD-1 cells (setting [3]) was greater than 10000 nM; in the assay on DLD-1 BRCA2−/− cells (setting [4]), 316 nM.
With `CN1CCN(CCOc2ccc(-c3nc4c(OC5(C)CC5)ncnc4n3Cc3ccccc3)c(C#N)c2)CC1` [Example H8, 2-(9-benzyl-6-(1-methylcyclopropoxy)-9H-purin-8-yl)-5-(2-(4-methylpiperazin-1-yl)ethoxy)benzonitrile], the IC50 with DLD-1 cells (setting [5]) is greater than 10000 nM; in the assay with DLD-1 BRCA2−/− cells (setting [6]) it was 398 nM.
`Cc1ccnc(Cn2c(-c3ccc(CCN4CCCC4)cc3Cl)nc3c(OC4(C)CC4)ncnc32)c1` [Example T505, 8-(2-chloro-4-(2-(pyrrolidin-1-yl)ethyl)phenyl)-6-(1-methylcyclopropoxy)-9-((4-methylpyridin-2-yl)methyl)-9H-purine]: the IC50 with DLD-1 cells (setting [3]) is greater than 10000 nM; in the assay with DLD-1 BRCA2−/− cells (setting [4]) it was 158 nM.
For `CN1CCN(CCOc2ccc(-c3nc4c(OC5(C)CC5)ncnc4n3Cc3cccc(Cl)c3)c(Cl)c2)CC1` [Example E2, 8-(2-chloro-4-(2-(4-methylpiperazin-1-yl)ethoxy)phenyl)-9-(3-chlorobenzyl)-6-(1-methylcyclopropoxy)-9H-purine], the IC50 is 3160 nM with DLD-1 cells (setting [5]) and 25.1 nM with DLD-1 BRCA2−/− cells (setting [6]).
On to `Cc1ccnc(Cn2c(-c3ccc(OC4CN(C(N)=O)C4)cc3Cl)nc3c(OC4(C)CC4)ncnc32)c1` [Example T205, 3-(3-chloro-4-(6-(1-methylcyclopropoxy)-9-((4-methylpyridin-2-yl)methyl)-9H-purin-8-yl)phenoxy)azetidine-1-carboxamide], for which the IC50 is greater than 10000 nM with DLD-1 cells (setting [1]) and 398 nM in the assay with DLD-1 BRCA2−/− cells (setting [2]).
The corresponding values for `CC(CCOc1ccc(-c2nc3c(OC4(C)CC4)ncnc3n2Cc2cc(Cl)cc(Cl)c2)c(Cl)c1)C(=O)O` (racemic) [Example T275, 4-(3-chloro-4-(9-(3,5-dichlorobenzyl)-6-(1-methylcyclopropoxy)-9H-purin-8-yl)phenoxy)-2-methylbutanoic acid] are greater than 10000 nM and 126 nM.
The corresponding values for `CC(CCOc1ccc(-c2nc3c(OC4(C#N)CC4)ncnc3n2Cc2cccc(Cl)c2)c(Cl)c1)C(=O)O` (racemic) [Example T252, 4-(3-chloro-4-(9-(3-chlorobenzyl)-6-(1-cyanocyclopropoxy)-9H-purin-8-yl)phenoxy)-2-methylbutanoic acid] are greater than 10000 nM and 398 nM.
Regarding `CC1(Oc2ncnc3c2nc(-c2ccc(OCCC(=O)O)cc2Cl)n3Cc2cccc(Cl)c2)CC1` [Example T87, 3-(3-chloro-4-(9-(3-chlorobenzyl)-6-(1-methylcyclopropoxy)-9H-purin-8-yl)phenoxy)propanoic acid], the IC50 in the assay on DLD-1 cells (DLD-1, DLD1 BRCA2 wt cells, mean, read-out: POLQ PD Prolif Lumin DLD1 mean PIC50 (converted)) is greater than 10000 nM; with DLD-1 BRCA2−/− cells (DLD-1, DLD-1 BRCA2 −/− cells, mean, read-out: POLQ PD Prolif Lumin BRCA2 −/− mean pIC50 (converted)) it was 398 nM.
As for `Cc1ccnc(Cn2c(-c3cccc(OCCCN(C)C)c3Cl)nc3c(OC4(C)CC4)ncnc32)c1` [Example T386, 3-(2-chloro-3-(6-(1-methylcyclopropoxy)-9-((4-methylpyridin-2-yl)methyl)-9H-purin-8-yl)phenoxy)-N,N-dimethylpropan-1-amine], the results for the IC50 in the assay with DLD-1 cells (setting [7]) and with DLD-1 BRCA2−/− cells (setting [8]) were greater than 10000 nM and 100 nM, respectively.
`CC1(Oc2ncnc3c2nc(-c2cc(F)cc(OCCC(=O)O)c2Cl)n3Cc2cccc(Cl)c2)CC1` [Example U39, 3-(2-chloro-3-(9-(3-chlorobenzyl)-6-(1-methylcyclopropoxy)-9H-purin-8-yl)-5-fluorophenoxy)propanoic acid]: the IC50 was greater than 10000 nM with DLD-1 cells (setting [9]) and 12.6 nM in the assay on DLD-1 BRCA2−/− cells (setting [10]).
As for `CN1CCN(CCOc2ccc(-c3nc4c(OC5(C)CC5)ncnc4n3Cc3ccccc3)c(Cl)c2)CC1` [Example 4, 9-Benzyl-8-(2-chloro-4-(2-(4-methylpiperazin-1-yl)ethoxy)phenyl)-6-(1-methylcyclopropoxy)-9H-purine], the values for the IC50 with DLD-1 cells (setting [5]) and in the assay on DLD-1 BRCA2−/− cells (setting [6]) were 3980 nM and 63.1 nM, respectively.
Take `COc1ccc(C)cc1Cn1c(-c2ccc(OCC[C@H](C)C(=O)O)cc2Cl)nc2c(OC3(C)CC3)ncnc21` [Example U94, (S)-4-(3-chloro-4-(9-(2-methoxy-5-methylbenzyl)-6-(1-methylcyclopropoxy)-9H-purin-8-yl)phenoxy)-2-methylbutanoic acid]: the IC50 with DLD-1 cells (setting [9]) was greater than 10000 nM; in the assay on DLD-1 BRCA2−/− cells (setting [10]), 50.1 nM.
`CC1(Oc2ncnc3c2nc(-c2ccc(OCCN4CCNCC4)cc2Cl)n3Cc2cc(Cl)c(F)cn2)CC1` [Example T346, 8-(2-chloro-4-(2-(piperazin-1-yl)ethoxy)phenyl)-9-((4-chloro-5-fluoropyridin-2-yl)methyl)-6-(1-methylcyclopropoxy)-9H-purine]: the IC50 is greater than 10000 nM in the assay on DLD-1 cells (setting [7]) and 1580 nM with DLD-1 BRCA2−/− cells (setting [8]).
